In data set [1] the target is Metabotropic glutamate receptor 1 (Rattus norvegicus, UniProt P23385). Nature of the data set: Displacement of [18F]FITM from mGlu1 receptor in rat brain homogenates after 1 hr by gamma counting. It counts as tissue-based. For orientation: Loss of bound radioactivity is the signal in a displacement assay; it reports binding, not function.
Data set [2] deals with Metabotropic glutamate receptor 5 (Rattus norvegicus, UniProt P31424). The data set is described as follows: Displacement of [11C]-ABP688 from mGlu5 receptor in rat brain homogenates after 1 hr by gamma counting. In kind it is tissue-based.
For data set [3], the target named is Metabotropic glutamate receptor 1 (Rattus norvegicus) (UniProt P23385). The data set is described as follows: Binding affinity to mGlu1 receptor in rat brain cerebral cortex at 7.4 MBq after 60 mins by autoradiography. It counts as tissue-based. The note with it: 7.4 M, tested as the 14C-labelled form.
Data set [4] has the same target. Nature of the data set: Binding affinity to mGlu1 receptor in rat hippocampus. It counts as tissue-based.
Data set [5] shares this target. Nature of the data set: Binding affinity to mGlu1 receptor in rat brain homogenates at 7.4 MBq after 60 mins by autoradiography in presence of unlabeled N-[4-[6-(Isopropylamino)pyrimidin-4-yl]-1,3-thiazol-2-yl]- N,4-dimethylbenzamide. In kind it is tissue-based. The note with it: 7.4 M, tested as the 14C-labelled form.
For data set [6] the target is unchanged. The data set is described as follows: Binding affinity to mGlu1 receptor in rat thalamus at 7.4 MBq after 60 mins by autoradiography. In kind it is tissue-based. The note with it: 7.4 M, tested as the 14C-labelled form.
Data set [7] shares this target. Nature of the data set: Binding affinity to mGlu1 receptor in rat striatum. In kind it is tissue-based.
The target is the same in data set [8]. Nature of the data set: Binding affinity to mGlu1 receptor in rat brain substantia nigra pars reticulate at 7.4 MBq after 60 mins by autoradiography. It counts as tissue-based. The note with it: 7.4 M, tested as the 14C-labelled form.
Data set [9] shares this target. Nature of the data set: Binding affinity to mGlu1 receptor in rat cerebellum at 7.4 MBq after 60 mins by autoradiography. In kind it is tissue-based. The note with it: 7.4 M, tested as the 14C-labelled form.
Data set [10] has the same target. Nature of the data set: Binding affinity to mGlu1 receptor in rat striatum at 7.4 MBq after 60 mins by autoradiography. It counts as tissue-based. The note with it: 7.4 M, tested as the 14C-labelled form.
The target is the same in data set [11]. The data set is described as follows: Binding affinity to mGlu1 receptor in rat thalamus. It counts as tissue-based.
Data set [12] shares this target. The data set is described as follows: Binding affinity to mGlu1 receptor in rat brain pons at 7.4 MBq after 60 mins by autoradiography. In kind it is tissue-based. The note with it: 7.4 M, tested as the 14C-labelled form.
Data set [13] can be described thus: Lipophilicity, log D of the compound by shake flask method. In kind it is physicochemical. The note with it: octanol/water.
In data set [14] the target is Metabotropic glutamate receptor 1 (Rattus norvegicus) (UniProt P23385). The data set is described as follows: Binding affinity to mGlu1 receptor in rat hippocampus at 7.4 MBq after 60 mins by autoradiography. It counts as tissue-based. The note with it: 7.4 M, tested as the 14C-labelled form.
Data set [15] shares this target. Nature of the data set: Binding affinity to mGlu1 receptor in rat brain homogenates at 7.4 MBq after 60 mins by autoradiography in presence of unlabeled 4-(6-chloropyrimidin-4-yl)-N-methylthiazol-2-amine. It counts as tissue-based. The note with it: 7.4 M, tested as the 14C-labelled form.

Molecules are shown by their SMILES. The source made the active and inactive calls. The rule behind the calls is not given here. Where only a bound is given, the exact number is not on record here.

Metabotropic glutamate receptor 1 (Rattus norvegicus), sequence (P23385 19-1199 limits assumed): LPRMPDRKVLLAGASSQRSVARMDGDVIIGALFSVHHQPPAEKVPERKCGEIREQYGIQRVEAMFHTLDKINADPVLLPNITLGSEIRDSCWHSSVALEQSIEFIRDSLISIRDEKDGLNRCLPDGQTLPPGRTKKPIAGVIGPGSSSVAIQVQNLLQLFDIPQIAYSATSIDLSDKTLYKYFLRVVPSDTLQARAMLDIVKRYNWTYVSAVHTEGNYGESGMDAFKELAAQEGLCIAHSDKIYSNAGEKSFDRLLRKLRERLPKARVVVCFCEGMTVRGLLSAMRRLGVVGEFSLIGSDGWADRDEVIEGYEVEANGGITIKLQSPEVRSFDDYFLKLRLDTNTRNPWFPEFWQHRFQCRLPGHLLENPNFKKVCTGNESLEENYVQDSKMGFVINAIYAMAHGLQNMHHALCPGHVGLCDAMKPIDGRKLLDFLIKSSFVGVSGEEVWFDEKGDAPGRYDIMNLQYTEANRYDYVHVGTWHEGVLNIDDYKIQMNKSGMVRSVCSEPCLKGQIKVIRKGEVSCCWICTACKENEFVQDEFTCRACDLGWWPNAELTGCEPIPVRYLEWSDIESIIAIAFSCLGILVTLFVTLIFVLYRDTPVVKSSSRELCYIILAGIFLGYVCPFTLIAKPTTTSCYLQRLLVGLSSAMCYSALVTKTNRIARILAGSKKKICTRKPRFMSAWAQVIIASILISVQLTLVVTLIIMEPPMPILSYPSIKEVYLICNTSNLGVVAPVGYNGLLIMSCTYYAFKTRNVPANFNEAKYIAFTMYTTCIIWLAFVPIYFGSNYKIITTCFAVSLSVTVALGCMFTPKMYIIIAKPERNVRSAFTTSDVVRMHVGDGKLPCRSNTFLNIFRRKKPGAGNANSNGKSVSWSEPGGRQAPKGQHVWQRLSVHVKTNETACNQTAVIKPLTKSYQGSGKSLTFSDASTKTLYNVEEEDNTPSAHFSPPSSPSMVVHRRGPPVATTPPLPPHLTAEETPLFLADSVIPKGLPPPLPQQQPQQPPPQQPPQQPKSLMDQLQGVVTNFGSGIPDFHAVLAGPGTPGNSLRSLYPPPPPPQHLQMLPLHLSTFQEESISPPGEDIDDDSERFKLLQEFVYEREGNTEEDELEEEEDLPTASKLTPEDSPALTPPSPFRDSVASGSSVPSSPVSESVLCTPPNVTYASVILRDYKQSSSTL
Metabotropic glutamate receptor 1, sequence (P23385 whole entry): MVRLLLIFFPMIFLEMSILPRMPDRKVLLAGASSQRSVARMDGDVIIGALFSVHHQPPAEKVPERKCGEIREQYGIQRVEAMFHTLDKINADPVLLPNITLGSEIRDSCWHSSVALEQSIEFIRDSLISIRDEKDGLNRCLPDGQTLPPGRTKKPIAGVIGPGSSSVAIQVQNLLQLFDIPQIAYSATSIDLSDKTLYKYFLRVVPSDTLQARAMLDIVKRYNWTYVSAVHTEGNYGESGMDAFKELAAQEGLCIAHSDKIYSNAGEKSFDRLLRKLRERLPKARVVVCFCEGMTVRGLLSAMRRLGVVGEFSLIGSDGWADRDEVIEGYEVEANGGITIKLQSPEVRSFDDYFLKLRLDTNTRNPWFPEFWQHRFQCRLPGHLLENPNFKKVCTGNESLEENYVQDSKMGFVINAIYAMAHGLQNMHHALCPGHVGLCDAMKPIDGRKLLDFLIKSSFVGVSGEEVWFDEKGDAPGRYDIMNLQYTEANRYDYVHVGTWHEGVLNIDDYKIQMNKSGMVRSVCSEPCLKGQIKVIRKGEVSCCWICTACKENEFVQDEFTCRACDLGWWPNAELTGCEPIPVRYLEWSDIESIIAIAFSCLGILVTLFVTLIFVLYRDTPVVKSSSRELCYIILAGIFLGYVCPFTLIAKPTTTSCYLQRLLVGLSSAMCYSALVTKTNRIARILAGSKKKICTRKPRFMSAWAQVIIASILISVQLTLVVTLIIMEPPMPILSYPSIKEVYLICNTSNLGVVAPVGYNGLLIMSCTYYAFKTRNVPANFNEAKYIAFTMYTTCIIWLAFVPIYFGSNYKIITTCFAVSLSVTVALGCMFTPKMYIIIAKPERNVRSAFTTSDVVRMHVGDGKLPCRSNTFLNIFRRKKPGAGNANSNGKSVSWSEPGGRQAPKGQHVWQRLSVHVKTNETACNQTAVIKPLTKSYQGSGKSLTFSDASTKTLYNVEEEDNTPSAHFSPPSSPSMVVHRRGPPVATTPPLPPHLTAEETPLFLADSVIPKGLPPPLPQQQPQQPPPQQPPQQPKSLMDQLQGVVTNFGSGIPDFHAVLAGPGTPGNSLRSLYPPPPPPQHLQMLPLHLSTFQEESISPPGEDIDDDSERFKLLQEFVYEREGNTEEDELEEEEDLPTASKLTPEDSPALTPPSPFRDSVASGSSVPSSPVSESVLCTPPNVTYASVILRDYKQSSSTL
Metabotropic glutamate receptor 5, sequence (P31424 whole entry): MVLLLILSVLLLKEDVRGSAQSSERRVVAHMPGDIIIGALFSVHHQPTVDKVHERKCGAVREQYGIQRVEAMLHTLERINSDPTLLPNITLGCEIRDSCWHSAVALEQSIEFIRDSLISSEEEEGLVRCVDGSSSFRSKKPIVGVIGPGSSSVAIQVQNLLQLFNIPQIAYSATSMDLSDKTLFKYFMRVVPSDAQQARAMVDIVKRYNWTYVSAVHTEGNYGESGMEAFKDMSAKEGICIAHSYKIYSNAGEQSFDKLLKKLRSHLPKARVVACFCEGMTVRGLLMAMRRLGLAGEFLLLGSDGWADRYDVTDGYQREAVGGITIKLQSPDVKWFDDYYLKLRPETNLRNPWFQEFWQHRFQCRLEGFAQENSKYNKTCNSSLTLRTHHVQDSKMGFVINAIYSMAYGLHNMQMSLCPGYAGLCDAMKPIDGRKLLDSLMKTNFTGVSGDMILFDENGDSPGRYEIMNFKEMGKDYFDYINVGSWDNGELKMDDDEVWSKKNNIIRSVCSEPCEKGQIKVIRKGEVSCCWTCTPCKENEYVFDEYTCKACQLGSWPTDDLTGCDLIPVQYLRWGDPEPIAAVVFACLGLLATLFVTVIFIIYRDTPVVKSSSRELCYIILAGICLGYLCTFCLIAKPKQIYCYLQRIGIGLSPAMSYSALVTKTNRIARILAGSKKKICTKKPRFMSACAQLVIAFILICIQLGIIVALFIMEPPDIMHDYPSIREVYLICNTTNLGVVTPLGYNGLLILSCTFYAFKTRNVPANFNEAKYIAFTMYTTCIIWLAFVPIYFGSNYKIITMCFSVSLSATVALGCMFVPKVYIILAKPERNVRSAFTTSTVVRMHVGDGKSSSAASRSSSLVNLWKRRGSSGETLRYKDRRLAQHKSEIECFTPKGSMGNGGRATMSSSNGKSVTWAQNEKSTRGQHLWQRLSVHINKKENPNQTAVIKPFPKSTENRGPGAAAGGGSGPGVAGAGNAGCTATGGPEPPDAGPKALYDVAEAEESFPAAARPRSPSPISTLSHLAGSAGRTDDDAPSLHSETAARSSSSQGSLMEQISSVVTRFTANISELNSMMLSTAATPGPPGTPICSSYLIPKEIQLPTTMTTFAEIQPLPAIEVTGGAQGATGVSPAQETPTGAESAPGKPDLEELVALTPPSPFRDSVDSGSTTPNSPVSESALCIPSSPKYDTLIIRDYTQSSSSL

`CC(C)Nc1cc(-c2csc(N(C)C(=O)c3ccc(Cl)cc3)n2)ncn1`: in [1], the IC50 – broadly, the concentration that gives 50% inhibition – came out at 47 nM and affinity was put at a Ki of 22.2 nM. The IC50 in [2] was above 10000 nM.

Regarding `Cc1ccc(C(=O)N(C)c2nc(-c3cc(NC(C)C)ncn3)cs2)cc1`, the result in [3], in data set [6], in data set [8], in data set [9], in [10] and in data set [12] was Active. Further, the outcome in data set [14] was Active. The Activity is 27.5 nM in data set [4], 22.2 nM in [7] and 36.3 nM in data set [11]. Further, the outcome in data set [5] and in [15] was inactive. For the same molecule, the results for the IC50 in data set [1] and in data set [2] were 26.5 nM and above 10000 nM, respectively. Besides, in data set [1], the Ki (as a rule, a measure of affinity in units of concentration, obtained from inhibition or displacement) amounted to 13.6 nM. For the same molecule, the logD (commonly the decadic logarithm of the distribution of all forms, ionised or not, between an organic phase and buffer at a given pH) in data set [13] was 1.74.

In the case of `CC(C)Nc1cc(-c2csc(N(C)C(=O)c3ccc(C#N)cc3)n2)ncn1`, the half-maximal inhibitory concentration (IC50) in data set [1] was 64.7 nM; in [2], above 10000 nM. This molecule also returned a Ki in data set [1] of 27.3 nM.

These data come from ChEMBL document CHEMBL2176881, “Development of N-[4-[6-(isopropylamino)pyrimidin-4-yl]-1,3-thiazol-2-yl]-N-methyl-4-[11C]methylbenzamide for positron emission tomography imaging of metabotropic glutamate 1 receptor in monkey brain” (J Med Chem, 2012).
